According to patent publication US20250263370A1 (Tay Therapeutics Limited, priority 2022, published 2025):
Where two headings read alike, the source gives them in different places.

Tests used:
[1] = target: BRD4 BD2 (Homo sapiens (Human), UniProt O60885); assay: NanoBRET bromodomain assay, NanoLuc-BRD4-BD2 fusion in HEK293 cells; settings: for IC50: NanoBRET, HEK293 cells, top concentration 10 μM; for Fold selectivity: IC50 for BRD4 BD1 divided by IC50 for BRD4 BD2, qualitative if an IC50 is at the upper limit;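 as to all read-outs here: tracer displacement BRET read in transfected cells after 2 h compound exposure at 37 °C, signal in milliBRET units corrected against no-tracer background wells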
Method: HEK293 cells were transfected using NanoLuc-BRD4-BD1 or NanoLuc-BRD4-BD2 fusion vectors and incubated at 37° C. in an atmosphere of 5% CO2 for 20-24 hours. The transfected cells were then dispensed into 96-well plates using 90 μl cell suspension per well containing 2×10^5 cells/mL in Opti-MEM and 1× final concentration of tracer. 90 μL per well of cell suspension without tracer was also dispensed into at least 3 wells as “No tracer control samples” for background correction. Serially diluted test compounds were prepared at 1000× concentration in DMSO and further diluted to 10× concentration in Opti-MEM. […] Plates were then incubated at 37° C. +5% 002 incubator for 2 hours. […] Donor emission (450 nm) and acceptor emission (610 nm) were measured using PHERAstar (BMG LabTech). For data analysis, the raw BRET ratio was generated and converted to milliBRET units with background correction using the formula: [(Acceptorsample/Donorsample−(Acceptorno tracer control/Donorno tracer control)]×1000. The mBU data was plotted as a function of compound concentration and IC50s for BRET assay were determined by nonlinear regression analysis of concentration response curves using the Collaborative Drug Discovery Vault software. The fold-selectivity was calculated by dividing the IC50 for BRD4 BD1 by the IC50 for BRD4 BD2.

[2] = target: BRD4 BD1 (Homo sapiens (Human), UniProt O60885); assay: NanoBRET bromodomain assay, NanoLuc-BRD4-BD1 fusion in HEK293 cells; type: cell-based; settings: top concentration 10 μM

For `CCNC(=O)c1cc(OC(CC)c2ccccc2)c(C(=O)NC)[nH]1` (racemic) [Example 126, N^5-ethyl-N^2-methyl-3-(1-phenylpropoxy)-1H-pyrrole-2,5-dicarboxamide], the IC50 ([1]; BRD4 BD2 (IC50)) was 0.2 to 1 µM, the Fold selectivity [1] was “X (Fold >2 and ≤50)” and the IC50 [2] was ≥ 10 µM.

With `CCNC(=O)c1cc(OC(C)c2ccc3c(c2)COC3)c(C(=O)NC)[nH]1` (racemic) [Example 15, 3-(1-(1,3-dihydroisobenzofuran-5-yl)ethoxy)-M-ethyl-N^2-methyl-1H-pyrrole-2,5-dicarboxamide] the IC50 ([1]; BRD4 BD2 (IC50)) was 0.2 to 1 µM, the Fold selectivity [1] was “X (Fold >2 and ≤50)” and the IC50 [2] was ≥ 10 µM.

With `CCNC(=O)c1cc(OC(C)c2c(Cl)cccc2Cl)c(C(=O)NC)[nH]1` (single isomer, unassigned) [Example 67, 3-(1-(2,6-dichlorophenyl)ethoxy)-N^5-ethyl-N^2-methyl-1H-pyrrole-2,5-dicarboxamide] the Fold selectivity [1] was “— (Fold ≥0 and ≤2)”, the IC50 ([1]; read-out: BRD4 BD2 (IC50)) was > 10 µM and the IC50 [2] was ≥ 10 µM.

`CCNC(=O)c1cc(OC(C)c2ccccc2F)c(C(=O)NC)[nH]1` (single isomer, unassigned) [Example 21, N^5-ethyl-3-(1-(2-fluorophenyl)ethoxy)-N^2-methyl-1H-pyrrole-2,5-dicarboxamide] was tested, and the IC50 ([1]; BRD4 BD2 (IC50)) was > 10 µM, the Fold selectivity [1] was “— (Fold ≥0 and ≤2)” and the IC50 [2] was ≥ 10 µM.

For `CCNC(=O)c1cc(OC(C)c2cccc(C(F)(F)F)c2)c(C(=O)NC)[nH]1` (racemic) [Example 125, N^5-ethyl-N^2-methyl-3-(1-(3-(trifluoromethyl)phenyl)ethoxy)-1H-pyrrole-2,5-dicarboxamide], the IC50 ([1]; BRD4 BD2 (IC50)) was 0.2 to 1 µM, the Fold selectivity [1] was “X (Fold >2 and ≤50)” and the IC50 [2] was ≥ 10 µM.

With `CCNC(=O)c1cc(OC(C)c2ccccc2C(F)(F)F)c(C(=O)NC)[nH]1` (racemic) [Example 2, N^5-ethyl-N^2-methyl-3-(1-(2-(trifluoromethyl)phenyl)ethoxy)-1H-pyrrole-2,5-dicarboxamide] the IC50 ([1]; BRD4 BD2 (IC50)) was 0.05 to 0.2 µM, the Fold selectivity [1] was “XX (Fold >50 and ≤200)” and the IC50 [2] was ≥ 10 µM.

In the case of `CNC(=O)c1[nH]c(-c2cnn(C(F)(F)F)c2)cc1O[C@@H](C)c1ccccc1` [Example 83, (S)-N-methyl-3-(1-phenylethoxy)-5-(1-(trifluoromethyl)-1H-pyrazol-4-yl)-1H-pyrrole-2-carboxamide], the IC50 ([1]; BRD4 BD2 (IC50)) is reported as < 0.05 µM, the Fold selectivity [1] is reported as “XXX (Fold >200)” and the IC50 [2] is reported as ≥ 10 µM.

With `CCCC(Oc1cc(C(=O)NCC)[nH]c1C(=O)NC)c1ccccc1` (racemic) [Example 16, N^5-ethyl-N^2-methyl-3-(1-phenylbutoxy)-1H-pyrrole-2,5-dicarboxamide] the IC50 ([1]; BRD4 BD2 (IC50)) was 0.2 to 1 µM, the Fold selectivity [1] was “X (Fold >2 and ≤50)” and the IC50 [2] was ≥ 10 µM.

In the case of “(S)—N^2-ethyl-4-(1-(2-fluorophenyl) ethyl)-N^5,3-dimethyl-1H-pyrrole-2,5-dicarboxamide [Example 74]”, the Fold selectivity [1] is reported as “X (Fold >2 and ≤50)”, the IC50 ([1]; read-out: BRD4 BD2 (IC50)) is reported as 1 to 10 µM and the IC50 [2] is reported as ≥ 10 µM.

In the case of `CCNC(=O)c1cc(OC(C)c2ccc(C#N)cc2)c(C(=O)NC)[nH]1` (racemic) [Example 9, 3-(1-(4-cyanophenyl)ethoxy)-N^5-ethyl-N^2-methyl-1H-pyrrole-2,5-dicarboxamide], the IC50 ([1]; BRD4 BD2 (IC50)) is reported as > 10 µM, the Fold selectivity [1] is reported as “— (Fold ≥0 and ≤2)” and the IC50 [2] is reported as ≥ 10 µM.

In the case of `CNC(=O)c1[nH]c(C(=O)NCC(F)(F)F)cc1O[C@@H](C)c1ccc(Cl)cc1` [Example 60, (S)-3-(1-(4-chlorophenyl)ethoxy)-N^2-methyl-N^5-(2,2,2-trifluoroethyl)-1H-pyrrole-2,5-dicarboxamide], the IC50 ([1]; BRD4 BD2 (IC50)) is reported as 0.05 to 0.2 µM, the Fold selectivity [1] is reported as “XX (Fold >50 and ≤200)” and the IC50 [2] is reported as ≥ 10 µM.

`CNC(=O)c1[nH]c(-c2cc(C)nn2C)cc1O[C@@H](C)c1ccccc1` [Example 81, (S)-5-(1,3-dimethyl-1H-pyrazol-5-yl)-N-methyl-3-(1-phenylethoxy)-1H-pyrrole-2-carboxamide] was tested, and the IC50 ([1]; BRD4 BD2 (IC50)) was 0.05 to 0.2 µM, the Fold selectivity [1] was “XX (Fold >50 and ≤200)” and the IC50 [2] was ≥ 10 µM.

With `CCNC(=O)c1cc(OC(C)c2ccc(OC)cc2)c(C(=O)NC)[nH]1` (single isomer, unassigned) [Example 75, N^5-ethyl-3-(1-(4-methoxyphenyl)ethoxy)-N^2-methyl-1H-pyrrole-2,5-dicarboxamide] the IC50 ([1]; BRD4 BD2 (IC50)) was 0.05 to 0.2 µM, the Fold selectivity [1] was “XX (Fold >50 and ≤200)” and the IC50 [2] was ≥ 10 µM.

`CNC(=O)c1[nH]c(-c2cc(C)nc(C)c2)cc1O[C@@H](C)c1ccccc1` [Example 90, (S)-5-(2,6-dimethylpyridin-4-yl)-N-methyl-3-(1-phenylethoxy)-1H-pyrrole-2-carboxamide] was tested, and the IC50 ([1]; BRD4 BD2 (IC50)) was 0.2 to 1 µM, the Fold selectivity [1] was “X (Fold >2 and ≤50)” and the IC50 [2] was ≥ 10 µM.

`CCNC(=O)c1cc(OC(C)c2ccccc2C)c(C(=O)NC)[nH]1` (racemic) [Example 5, N^5-ethyl-N^2-methyl-3-(1-(o-tolyl)ethoxy)-1H-pyrrole-2,5-dicarboxamide] was tested, and the IC50 ([1]; BRD4 BD2 (IC50)) was 0.05 to 0.2 µM, the Fold selectivity [1] was “XX (Fold >50 and ≤200)” and the IC50 [2] was ≥ 10 µM.

With `CCNC(=O)c1cc(OC(C)c2ccc(I)cc2)c(C(=O)NC)[nH]1` (single isomer, unassigned) [Example 52, N^5-ethyl-3-(1-(4-iodophenyl)ethoxy)-N^2-methyl-1H-pyrrole-2,5-dicarboxamide] the IC50 ([1]; BRD4 BD2 (IC50)) was > 10 µM, the Fold selectivity [1] was “— (Fold ≥0 and ≤2)” and the IC50 [2] was ≥ 10 µM.

In the case of `CCNC(=O)c1cc(OC(C)c2ccc(C)cc2)c(C(=O)NC)[nH]1` (single isomer, unassigned) [Example 26, N^5-ethyl-N^2-methyl-3-(1-(p-tolyl)ethoxy)-1H-pyrrole-2,5-dicarboxamide], the IC50 ([1]; BRD4 BD2 (IC50)) is reported as > 10 µM, the Fold selectivity [1] is reported as “— (Fold ≥0 and ≤2)” and the IC50 [2] is reported as ≥ 10 µM.

In the case of `CCNC(=O)c1cc(OC(C)c2ccccc2F)c(C(=O)NC)[nH]1` (racemic) [Example 124, N^5-ethyl-3-(1-(2-fluorophenyl)ethoxy)-N^2-methyl-1H-pyrrole-2,5-dicarboxamide], the IC50 ([1]; BRD4 BD2 (IC50)) is reported as 0.05 to 0.2 µM, the Fold selectivity [1] is reported as “XX (Fold >50 and ≤200)” and the IC50 [2] is reported as ≥ 10 µM.

In the case of `CCNC(=O)c1cc(OC(C)c2ccccc2Cl)c(C(=O)NC)[nH]1` (racemic) [Example 6, 3-(1-(2-chlorophenyl)ethoxy)-N^5-ethyl-N^2-methyl-1H-pyrrole-2,5-dicarboxamide], the IC50 ([1]; BRD4 BD2 (IC50)) is reported as 0.2 to 1 µM, the Fold selectivity [1] is reported as “X (Fold >2 and ≤50)” and the IC50 [2] is reported as ≥ 10 µM.

`CNC(=O)c1[nH]c(-c2ccccc2)cc1O[C@@H](C)c1ccccc1` [Example 84, (S)-N-methyl-5-phenyl-3-(1-phenylethoxy)-1H-pyrrole-2-carboxamide] was tested, and the IC50 ([1]; BRD4 BD2 (IC50)) was 1 to 10 µM, the Fold selectivity [1] was “X (Fold >2 and ≤50)” and the IC50 [2] was ≥ 10 µM.

With `CCNC(=O)c1cc(OC(C)c2ccc(C(F)(F)F)cc2)c(C(=O)NC)[nH]1` (racemic) [Example 1, N^5-ethyl-N^2-methyl-3-(1-(4-(trifluoromethyl)phenyl)ethoxy)-1H-pyrrole-2,5-dicarboxamide] the IC50 ([1]; BRD4 BD2 (IC50)) was 0.2 to 1 µM, the Fold selectivity [1] was “X (Fold >2 and ≤50)” and the IC50 [2] was ≥ 10 µM.

`CNC(=O)c1[nH]c(-c2ncc(C)[nH]2)cc1O[C@@H](C)c1ccccc1` [23 (2)*] was tested, and the “BRD4 BD2 % Activity Remaining @ 10 uM” value ([1]; 10 uM, (2) = second batch) was 61%, the IC50 ([1]; BRD4 BD2 (IC50)) was > 10 µM and the Fold selectivity [1] was “— (Fold ≥0 and ≤2)”. For the same compound, the IC50 [2] was ≥ 10 µM.

For `CNC(=O)c1[nH]c(C(=O)NC(C)(C)C)cc1O[C@@H](C)c1ccccc1` [Example 121], the IC50 ([1]; BRD4 BD2 (IC50)) was 0.2 to 1 µM, the Fold selectivity [1] was “X (Fold >2 and ≤50)” and the IC50 [2] was ≥ 10 µM.

With `CNC(=O)c1[nH]c(C(=O)N[C@H]2CC[C@H](O)CC2)cc1O[C@@H](C)c1ccnnc1` (single isomer, unassigned) [Example 93, N^5-(4-hydroxycyclohexyl)-N^2-methyl-3-(1-(pyridazin-4-yl)ethoxy)-1H-pyrrole-2,5-dicarboxamide] the Fold selectivity [1] was “— (Fold ≥0 and ≤2)”, the IC50 ([1]; read-out: BRD4 BD2 (IC50)) was > 10 µM and the IC50 [2] was ≥ 10 µM.

With `CCNC(=O)c1cc(OC(CCOC)c2ccccc2)c(C(=O)NC)[nH]1` (racemic) [Example 8, N^5-ethyl-3-(3-methoxy-1-phenylpropoxy)-N^2-methyl-1H-pyrrole-2,5-dicarboxamide] the IC50 ([1]; BRD4 BD2 (IC50)) was > 10 µM, the Fold selectivity [1] was “— (Fold ≥0 and ≤2)” and the IC50 [2] was ≥ 10 µM.

In the case of `CNC(=O)c1[nH]c(-c2cnn(C)c2)cc1O[C@@H](C)c1ccccc1` [Example 88, (S)-N-methyl-5-(1-methyl-1H-pyrazol-4-yl)-3-(1-phenylethoxy)-1H-pyrrole-2-carboxamide], the IC50 ([1]; BRD4 BD2 (IC50)) is reported as 0.05 to 0.2 µM, the Fold selectivity [1] is reported as “XX (Fold >50 and ≤200)” and the IC50 [2] is reported as ≥ 10 µM.

`CCNC(=O)c1cc(OC(C)c2ccc(OC)cc2)c(C(=O)NC)[nH]1` (single isomer, unassigned) [Example 76, N^5-ethyl-3-(1-(4-methoxyphenyl)ethoxy)-N^2-methyl-1H-pyrrole-2,5-dicarboxamide] was tested, and the IC50 ([1]; BRD4 BD2 (IC50)) was > 10 µM, the Fold selectivity [1] was “— (Fold ≥0 and ≤2)” and the IC50 [2] was ≥ 10 µM.

In the case of `CCNC(=O)c1cc(OC(C)c2ccc(Cl)cc2F)c(C(=O)NC)[nH]1` (single isomer, unassigned) [Example 42, 3-(1-(4-chloro-2-fluorophenyl)ethoxy)-N^5-ethyl-N^2-methyl-1H-pyrrole-2,5-dicarboxamide], the IC50 ([1]; BRD4 BD2 (IC50)) is reported as > 10 µM, the Fold selectivity [1] is reported as “— (Fold ≥0 and ≤2)” and the IC50 [2] is reported as ≥ 10 µM.

In the case of `CCNC(=O)c1cc(OC(C)c2ccccc2C#N)c(C(=O)NC)[nH]1` (racemic) [Example 11, 3-(1-(2-cyanophenyl)ethoxy)-N^5-ethyl-N^2-methyl-1H-pyrrole-2,5-dicarboxamide], the IC50 ([1]; BRD4 BD2 (IC50)) is reported as > 10 µM, the Fold selectivity [1] is reported as “— (Fold ≥0 and ≤2)” and the IC50 [2] is reported as ≥ 10 µM.

With `CNC(=O)c1[nH]c(C(=O)N[C@@H](C)C(F)(F)F)cc1O[C@@H](C)c1ccccc1` [Example 120, N^2-methyl-3-((S)-1-phenylethoxy)-N^5-((S)-1,1,1-trifluoropropan-2-yl)-1H-pyrrole-2,5-dicarboxamide] the IC50 ([1]; BRD4 BD2 (IC50)) was > 10 µM, the Fold selectivity [1] was “— (Fold ≥0 and ≤2)” and the IC50 [2] was ≥ 10 µM.
